# T1: Aspergillus phytase (Aspergillus niger, UniProt P34752)
# T1 sequence (P34752 24-467): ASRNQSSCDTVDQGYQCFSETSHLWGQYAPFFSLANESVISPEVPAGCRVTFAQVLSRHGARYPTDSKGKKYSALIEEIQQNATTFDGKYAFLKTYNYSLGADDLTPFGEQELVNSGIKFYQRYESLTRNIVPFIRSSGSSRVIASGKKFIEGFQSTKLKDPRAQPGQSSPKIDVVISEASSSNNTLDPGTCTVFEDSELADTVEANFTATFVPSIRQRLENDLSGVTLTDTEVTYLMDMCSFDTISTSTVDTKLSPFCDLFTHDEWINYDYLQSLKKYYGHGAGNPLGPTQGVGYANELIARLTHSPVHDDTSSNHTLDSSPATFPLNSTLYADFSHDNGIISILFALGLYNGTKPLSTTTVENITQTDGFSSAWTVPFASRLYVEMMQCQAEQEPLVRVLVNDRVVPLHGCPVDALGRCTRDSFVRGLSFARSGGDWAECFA
# Key:
# Aspergillus phytase = molecular target: T1, Aspergillus phytase; details: Ullah, 1988, Preparative Biochemistry 18: 443-458; read-out: Ki (phosphate, competitive inhibitor); cited from earlier work
# [1] = tested on: Thermomyces lanuginosus CBS 586.94 phytase, purified recombinant, SEQ ID NO:2; assay: Steady-state kinetics by substrate titration, assay of inorganic phosphate liberated from corn phytic acid; format: biochemical
# Procedure: (§1) All characterizations were performed with the purified recombinant Thermomyces lanuginosus CBS 586.94 phytase described in Example 11. Comparisons were also made where noted with a standard of an Aspergillus niger (ficuum) phytase obtained from Novo Nordisk A/S, Bagsverd, Denmark.
# (§2) Enzyme kinetics studies. Enzyme kinetics studies were performed on the Thermomyces phytase and the Aspergillus niger phytase. The studies were accomplished by assay of inorganic phosphate liberated from corn phytic acid (Sigma Chemical Co., St. Louis, Mo.). Standard enzyme reactions were carried out for 30 minutes at 37° C. and pH 5.5 in 0.5% w/w phytic acid. The reaction was quenched by the addition of an equal volume of 15% w/w trichloroacetic acid. After cooling, 100 μl of the resulting mixture was diluted into 1.0 ml of glass distilled water. The sample was incubated at 50° C. for 5 minutes. Color reagent (1.0 ml) was added and the 50° C. incubation was continued for 15 minutes. The absorbance of a 200 μl aliquot was measured at 690 nm with a Molecular Devices Thermomax Microplate Reader. The color reagent is composed of 6N sulfuric acid: water: 2.5% (w/v) ammonium heptamolybdate, tetrahydrate: 10% ascorbate (aqueous) in a ratio of 1:2:1:1 and prepared fresh on a daily basis. Quantitation was based on a standard curve generated with a 10 mM sodium monobasic phosphate standard. One unit U) is defined as a μmole of inorganic phosphate released per minute at 37° C. and pH 5.5.
# Steady-state kinetics measurements were made by substrate titration. Phytate concentrations were 2.16, 1.08, 0.541, 0.216, 0.108, and 0.0758 mM for the purposes of Km determination. Phytate concentrations of 1.08, 0.541, 0.216 and 0.108 mM in the presence or absence of 1 mM sodium monobasic phosphate were used for the purpose of evaluating product inhibition.
# [2] = substrate: O=P(O)(O)O[C@H]1[C@H](OP(=O)(O)O)[C@@H](OP(=O)(O)O)[C@H](OP(=O)(O)O)[C@@H](OP(=O)(O)O)[C@H]1OP(=O)(O)O; assay: as above; format: biochemical, Aspergillus niger (ficuum); details: other: 37° C., pH 5.5, phytate 0.0758-2.16 mM
# Procedure: as §1
# as §2, with “One unit U) is defined as a μmole of inorganic phosphate released per minute at 37° C. and pH 5.5.” left out
molecule,measurement,setting,value
"O=P([O-])(O)O.[Na+] [phosphate, sodium monobasic phosphate]",Ki,Aspergillus phytase,1900 µM
same,product inhibition with 1 mM phosphate present,"[1]; 1 mM sodium monobasic phosphate, phytate 0.108-1.08 mM",failed to reveal any type of inhibition
same,Ki,"[1]; estimated, phytate 0.108-1.08 mM with or without 1 mM sodium monobasic phosphate",> 3000 µM
"O=P(O)(O)O[C@H]1[C@H](OP(=O)(O)O)[C@@H](OP(=O)(O)O)[C@H](OP(=O)(O)O)[C@@H](OP(=O)(O)O)[C@H]1OP(=O)(O)O [phytate, myo-inositol hexakisphosphate]",Km,"[1]; 37° C., pH 5.5, phytate 0.0758-2.16 mM, read-out: apparent Km with respect to phytate",~110 µM
"Aspergillus niger (ficuum) phytase, standard obtained from Novo Nordisk A/S (Aspergillus niger) (protein, purchased Novo Nordisk A/S, Bagsverd, Denmark) ASRNQSSCDTVDQGYQCFSETSHLWGQYAPFFSLANESVISPEVPAGCRVTFAQVLSRHGARYPTDSKGKKYSALIEEIQQNATTFDGKYAFLKTYNYSLGADDLTPFGEQELVNSGIKFYQRYESLTRNIVPFIRSSGSSRVIASGKKFIEGFQSTKLKDPRAQPGQSSPKIDVVISEASSSNNTLDPGTCTVFEDSELADTVEANFTATFVPSIRQRLENDLSGVTLTDTEVTYLMDMCSFDTISTSTVDTKLSPFCDLFTHDEWINYDYLQSLKKYYGHGAGNPLGPTQGVGYANELIARLTHSPVHDDTSSNHTLDSSPATFPLNSTLYADFSHDNGIISILFALGLYNGTKPLSTTTVENITQTDGFSSAWTVPFASRLYVEMMQCQAEQEPLVRVLVNDRVVPLHGCPVDALGRCTRDSFVRGLSFARSGGDWAECFA",Km,[2],200 µM

# From patent US5866118A, “Polypeptides having 3g6-phytase activity from thermomyces and nucleic acids encoding same” (Novo Nordisk Biotech, Inc., priority 1997, dated 1999)
